Results as given in ChEMBL document CHEMBL1201862, “PubChem BioAssay data set” (2004).
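Where inhibition never reached the appropriate level, the endpoint shown equals the highest concentration tested. Otherwise, values were interpolated linearly from a five-concentration, 48-hour dose response in 96-well plates. Here, GI50 denotes the concentration required for 50% inhibition of growth.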 Calls of active or inactive are those of the source. No stated cut-off is given here; in the data, active = GI50 up to about 1.1 µM and inactive = higher.

Legend:
Experiment in all cases: NCI-60 cell line screen, 48 h
COLO 205 = tested on: COLO 205
MOLT-4 = tested on: MOLT-4
Hs-578T = tested on: Hs-578T
SW-620 = tested on: SW-620
OVCAR-8 = tested on: OVCAR-8
HCT-116 = tested on: HCT-116
Malme-3M = tested on: Malme-3M
A498 = tested on: A498
OVCAR-4 = tested on: OVCAR-4
HOP-62 = tested on: HOP-62
NCI-H226 = tested on: NCI-H226
786-0 = tested on: 786-0
SF-539 = tested on: SF-539
SK-MEL-28 = tested on: SK-MEL-28
NCI/ADR-RES = tested on: NCI/ADR-RES
SK-MEL-2 = tested on: SK-MEL-2
HOP-92 = tested on: HOP-92
SF-268 = tested on: SF-268
HCT-15 = tested on: HCT-15
HT-29 = tested on: HT-29

COC(=O)C1(Cc2ccc3c(c2)CCC3)Cc2ccc3c(c2C1=O)CCC3 (stereo not given)
GI50 (COLO 205): 3.05 µM (inactive) | GI50 (MOLT-4): 4.06 µM (inactive) | GI50 (Hs-578T): 3.26 µM (inactive) | GI50 (SW-620): 4.11 µM (inactive) | GI50 (OVCAR-8): 15.2 µM (inactive) | GI50 (HCT-116): 3.66 µM (inactive) | GI50 (Malme-3M): 4.02 µM (inactive) | GI50 (A498): 5.61 µM (inactive) | GI50 (OVCAR-4): 7.73 µM (inactive) | GI50 (HOP-62): 7.23 µM (inactive) | GI50 (NCI-H226): 10.5 µM (inactive) | GI50 (786-0): 7.33 µM (inactive) | GI50 (SF-539): 5.68 µM (inactive) | GI50 (SK-MEL-28): 8.22 µM (inactive) | GI50 (NCI/ADR-RES): 3.07 µM (inactive) | GI50 (SK-MEL-2): 4.32 µM (inactive) | GI50 (HOP-92): 4.84 µM (inactive) | GI50 (SF-268): 10 µM (inactive) | GI50 (HCT-15): 3.66 µM | GI50 (HT-29): 3.29 µM (inactive)
